For assay [1], the system named is WNV-Cp. The assay can be described thus: Western blotting of WNV-Cp protein levels in transfected 293T cells. The class given is cell-based. How it is done:
293T cells were plated onto 60-mm plates at a density of 3×10^5 cells, cultured, and transfected with pcDAN3-HA/WNV-Cp alone, and pcDAN3-HA/WNV-Cp and pCMV-tag2B-Jab1 together using an Effectene transfection reagent (Qiagen). In the case of the co-transfection, to equalize the levels of expressed DNA, 12 hrs after transfection, cells were divided into two plates by pipetting. 20 hrs after transfection, the cells were treated for 4 hrs with 20 μM/ml of the proteasome inhibitor LLnL (N-acetyl-L-luecinyl-norleucinal, Sigma). Then, the cells were washed with 1×PBS and collected. Samples of 50 μg protein were loaded onto a SDS-PAGE gel and analyzed by Western blotting using an anti-HA antibody (Santa Cruz) for the detection of WNV-Cp expression and an anti-Flag M2 antibody (Sigma) for the detection of Jab1 expression. Actin was used as a loading control.

Assay [2] relates to SH-SY5Y cells expressing WNV-Cp. The assay can be described thus: Annexin V-PE staining / FACS apoptosis rate in cells transfected with WNV-Cp gene. The class given is cell-based, human. To be noted: 200 nM inhibitor added after 6 hrs, measured after 24 hrs, untreated WNV-Cp cells 69.6%. The text has this: Human neuroblastoma SH-SY5Y cells were transfected with a WNV-Cp gene. To determine an apoptosis rate in cells expressing the capsid protein of WNV, the cells were stained with annexin V-PE and subjected to FACS analysis (BioRAD, Win BRYTE). As a result, the cells were fractionated into four fractions: A, B, C and D. The A fraction indicates a cell population that was not injected with the WNV-Cp gene and stained with annexin V-PE.
Separately, SH-SY5Y cells were transfected with a WNV-Cp gene. After 6 hrs, the cells were treated with 200 nM of a PI3K inhibitor, wortmanin (Sigma), and 5 μM and 50 μM of an Akt inhibitor, calbiochem (CN Biosciences). After 24 hrs, the cells were stained with annexin V-PE that is capable of detecting a step of apoptosis and subjected to FACS analysis (BioRAD, WinBryte) for measuring an apoptosis rate. […] The transfected cells were analyzed on a FL3 channel (green fluorescence) and annexin V-PE binding was analyzed on a FL2 channel. An apoptosis rate in capsid-expressing cells was calculated according to Reaction 1, below. Cells transfected with a pEGFP-N1 plasmid were used as a negative control, and cells transfected with a C2-Cp plasmid and not treated with the inhibitor were used as a positive control. [Annexin V-PE-positive cells/(all cells expressing C2−Cp)]×100 [Reaction 1]

Assay [3] has as its system p53. The experiment in a line: Western blotting of endogenous p53 expression in transfected U2OS cells. As to conditions: U2OS cells transfected with 1, 3 and 5 μg Flag construct, 48 hrs. The class given is cell-based, human. How it is done:
U2OS cells were transfected with Flag/mdm2 (control) and Flag/Jab1 with various concentrations of 1, 3 and 5 μg using a Lipofectamin/plus reagent (Invitrogen). After 48 hrs, cell lysates were collected, and total protein concentrations were measured by a BSA (PIERCE) method. Samples of 100 μg/ml protein were separated on a 10% SDS-PAGE gel and transferred to a nitrocellulose membrane. The blot was blocked with 5% skim milk for 30 min, and treated with a rabbit anti-HA antibody (Santa Cruz) and a mouse anti-Flag antibody (Sigma) to examine expression levels of p53 according to increased expression of mdm2 and Jab1.

The subject of assay [4] is caspase-3 and caspase-9. The experiment in a line: Caspase activity assay (colorimetric) in transfected 293T cells. It is filed as cell-based, human. To be noted: 293T cells co-expressing WNV-Cp and Jab1 versus WNV-Cp alone, 24 hrs after transfection. How it is done:
293T cells were plated onto 60-mm plates at a density of 3×10^5 cells, cultured, and transfected with pcDNA3-HA, pcDNA3-HA/Cp, pCMV-tag2B-Jab1, both pcDNA3-HA/Cp and pCMV-tag2B-Jab1, and pcDNA3-Bax, respectively. After 24 hrs, the cells were washed with 1×PBS twice, transferred to 1.5-ml tubes, and lysed with 20 μl of buffer C (25% glycerol, 0.42 M NaCl, 1.5 M MgCl2, 0.2 mM EDTA, 20 mM HEPES, 1 mM DTT, 0.5 mM PMSF, pH7.9). After being incubated for 10 min on ice, the lysed cells were centrifuged. The total protein concentration in each supernatant was measured, and samples of zero to 300 μg of proteins were placed into a 96-well plate. To the 96-well plate, 50 μl of 2× reaction buffer and 5 μl of 4 mM DNA-conjugated substrate, provided in a caspase colorimetric substrate set II plus kit (Biovision), were added. After a 1-hr incubation at 37° C., the activity of caspase-3 and caspase-9 was measured at 410 nm using a microtiter plate reader. The results are given in the A panel of FIG. 8. In cells expressing WNV-Cp, the activity of capase-3 and caspase-9 was similar to that in cells expressing Bax, a member of the pro-apoptotic Bcl-2 family. […] The expression of the proteins used in this caspase activity assay was detected by Western blotting, and the results are given in the B panel of FIG. 8.

Assay [5] concerns the target T1, WNV-Cp (West Nile virus, UniProt Q9Q6P4).
T1 construct: capsid (Cp) protein of West Nile virus (WNV); expressed in transfected cells; host or cells: 293T
T1 sequence (Q9Q6P4 2-105 limits assumed): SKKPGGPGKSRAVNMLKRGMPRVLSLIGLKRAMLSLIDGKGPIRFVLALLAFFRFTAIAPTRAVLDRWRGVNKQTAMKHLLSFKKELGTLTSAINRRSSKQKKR
The assay can be described thus: Immunoprecipitation of Jab1 with WNV-Cp in cotransfected 293T cells. The class given is binding. As to conditions: 293T cells cotransfected with Flag-Jab1 and HA-WNV-Cp, IP with anti-HA antibody. Here is the method:
Separately, immunoprecipitation (IP) was performed to confirm the interaction between WNV-Cp and Jab1. 293T cells were cotransfected with Flag-Jab1 and HA-WNV-Cp plasmids, and the whole cell lysates were immunoprecipitated with an anti-HA mouse antibody. As a control, IP was carried out with an anti-Myc antibody. Immunoprecipited proteins were run on a 12% SDS-PAGE gel, transferred to a nitrocellulose membrane, and detected with an anti-Flag mouse antibody to visualize immunoprecipitated Jab1 along with WNV-Cp (FIG. 7).

The subject of assay [6] is WNV-Cp. The assay can be described thus: Immunofluorescence (confocal) localisation of WNV-Cp in cotransfected 293T, U2OS and HeLa cells. It is filed as cell-based, West Nile virus. As to conditions: U2OS and HeLa cells cotransfected with WNV-Cp and Jab1, 24 hrs. An excerpt: To evaluate the effect of Jab1, identified to interact with WNV-Cp, on the intracellular location of WNV-cp, 293T, U2OS and HeLa cells were cotransfected with the WNV-Cp protein and Jab1. 293T, U2OS and HeLa cells were cotransfected with HA-tagged pcDNA-HA/WNV-Cp and Flag-tagged pCMV Tag2B-Jab1. After 24 hrs, the cells were stained using an anti-HA antibody (green) and an anti-Flag antibody (red) and observed under a confocal microscope.

Square brackets hold non-standard residues; d marks the D form. Peptide text beside a SMILES is read from it. Nle = CCCC[C@H](N)C(=O)O

Sequence of p53 (P04637 whole entry): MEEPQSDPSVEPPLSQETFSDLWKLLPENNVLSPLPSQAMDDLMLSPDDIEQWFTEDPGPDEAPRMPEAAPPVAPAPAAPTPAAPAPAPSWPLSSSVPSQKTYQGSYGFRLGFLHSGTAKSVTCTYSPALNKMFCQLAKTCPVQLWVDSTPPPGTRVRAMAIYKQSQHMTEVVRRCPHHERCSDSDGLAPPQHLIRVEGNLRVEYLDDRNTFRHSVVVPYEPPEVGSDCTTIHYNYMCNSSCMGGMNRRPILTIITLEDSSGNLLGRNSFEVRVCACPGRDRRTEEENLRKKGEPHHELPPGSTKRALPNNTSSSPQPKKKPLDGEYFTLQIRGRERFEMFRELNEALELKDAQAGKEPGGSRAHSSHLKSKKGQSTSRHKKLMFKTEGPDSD

Regarding `CCCC[C@@H](C=O)NC(=O)[C@H](CC(C)C)NC(=O)[C@H](CC(C)C)NC(C)=O` [LLnL, N-acetyl-L-luecinyl-norleucinal, reference compound] (Ac-Leu-Leu-[Nle]-aldehyde), in assay [1] (293T cells cotransfected with WNV-Cp and Jab1, treated for 4 hrs with 20 μM/ml LLnL), the “protein levels of WNV-Cp” value is “increased”.

As to `COC[C@H]1OC(=O)c2coc3c2[C@@]1(C)C1=C(C3=O)[C@@H]2CCC(=O)[C@@]2(C)C[C@H]1OC(C)=O` [wortmanin], the apoptosis rate in assay [2] is listed as 22.8%.

As to “Jab1: Jun-activation binding protein 1, expressed in cells from plasmid pCMV-tag2B-Jab1 (Flag-tagged); amino acid sequence SEQ ID No. 2”, the “protein levels of WNV-Cp” value in assay [1] (293T cells, co-expression with Jab1 compared to single expression of WNV-Cp) was “large decrease”. Besides, the “expression of p53” value in assay [3] is “remarkably decreased”. In assay [4], the “caspase activity (caspase-3 and caspase-9)” value was “remarkably reduced”. For the same compound, the “interaction with WNV-Cp (co-immunoprecipitation)” value in assay [5] was “co-immunoprecipitated with WNV-Cp”. In addition, in assay [6], the “intracellular location of WNV-Cp” value is “appeared in the cytoplasm”.
